Experimental data published in patent US20230404080A1, “A METHOD OF CONTROLLING HERBICIDE RESISTANT WEEDS” (UPL Corporation Limited, priority 2020, published 2023).

Test system: Spermacoce verticillate
Experiment: Example 1 trial: herbicidal combinations on Spermacoce verticillate resistant to Group 4 and Group 9 herbicides
Assay type: in vivo
Conditions: for % weed control at 14 DA-B: 14 days after sequential application B, B applied 15 days after A, scale 0 (no damage) to 100 (complete destruction) vs untreated control, rates per Table 1; for control of S. verticillate weeds (in words): Example 1, sequential application used after glyphosate+triclopyr at 15 DA-A
Experimental: Trials were carried out for evaluating the effect of herbicidal combinations on target weeds of Spermacoce verticillate resistant to herbicides belonging to Group 4 and Group 9. The evaluation for the damage on undesired weeds caused by the present compositions was carried out using a scale from 0 to 100%, compared to the untreated control plants. Here, 0 means no damage and 100 means complete destruction of weed. In the following experiments, the herbicidal activity for the herbicidal combinations was assessed till 28 days after treatment (application A).
In this trial, time T was application time, application A was performed first and at 15 days, application B was performed out in treatments with sequential application. The tested herbicides were sourced from the formulations readily available.

Row | SMILES | % weed control at 14 DA-B | control of S. verticillate weeds (in words)
1 | O=C(O)COc1nc(Cl)c(Cl)cc1Cl [Triclopyr (A), Triclopyr] | 42.5% | do not efficiently control
2 | O=C(O)CNCP(=O)(O)O [Glyphosate (A), N-(phosphonomethyl)glycine] | 22% | do not efficiently control
